Experimental data: US20050042213A1, “Methods and pharmaceutical compositions for modulating heparanase activation and uses thereof” (InSight Biopharmaceuticals Ltd., priority 2003, published 2005)
Where a SMILES comes first, the peptide text is derived from it. Where no end group is shown, it is not given here. [ ]: non-standard residue; d: D form. The star is where a group is joined. AMC = Cc1cc(=O)oc2cc(N*)ccc12; Nle = CCCC[CH](N)C(=O)O; Cbz = O=C(OCc1ccccc1)*; NHOH = ON*

Columns and labels:
[1] = biological target: T1, pro-heparanase (H60) (Homo sapiens, UniProt Q9Y251, K307R); experiment: Pro-heparanase activation in a cell-based assay (293 cells, DMB assay); settings: inhibition of pro-heparanase activation
T1 sequence (Q9Y251 36-543 K307R): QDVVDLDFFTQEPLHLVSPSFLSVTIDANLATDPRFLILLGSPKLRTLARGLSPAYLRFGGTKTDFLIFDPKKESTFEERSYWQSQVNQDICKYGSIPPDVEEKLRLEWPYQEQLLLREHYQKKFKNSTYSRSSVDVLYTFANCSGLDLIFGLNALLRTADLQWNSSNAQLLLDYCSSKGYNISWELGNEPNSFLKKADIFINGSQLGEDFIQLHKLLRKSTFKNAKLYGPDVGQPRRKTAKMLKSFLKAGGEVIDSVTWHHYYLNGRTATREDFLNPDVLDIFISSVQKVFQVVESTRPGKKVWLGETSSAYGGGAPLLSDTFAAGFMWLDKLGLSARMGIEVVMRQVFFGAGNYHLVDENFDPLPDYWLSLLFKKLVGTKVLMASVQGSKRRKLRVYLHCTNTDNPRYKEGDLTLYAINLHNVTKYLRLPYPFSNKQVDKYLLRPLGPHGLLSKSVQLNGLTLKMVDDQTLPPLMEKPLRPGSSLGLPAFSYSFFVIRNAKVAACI

[2] = Heparin binding of compounds (heparin sepharose CL-6B beads); settings: compound at 5 uM
Experimental: Heparin binding—5 μM of the selected compound was prepared in a solution of PBS pH 7.2 with 0.05% Tween and 5% DMSO. […] Excess water was discarded by filtration using a Multiscreen vacuum manifold (Millipore, Cat No. MAVM 096 00). 200 μl of each compound tested was transferred to three wells of the filter plate—one empty well, one with sepharose CL-6B and one with heparin sepharose CL-6B. Plates were rotated for 2 hrs at 37° C. followed by filtration to a new 96 well clear plate, using a Multiscreen vacuum manifold. The absorbance spectrum of the filtrate in each well was determined using a VERSAmax plate reader (Molecular devices). Percent of heparin binding was calculated from the binding to heparin sepharose CL-6B as compared to the binding of the compound to the control sepharose CL-6B beads.

[3] = tested on: 293 cell extract; experiment: Cleavage of Z-Pro-Lys-Lys-Glu-AMC (Peptide 1) by 293 cell extract and its inhibition by protease inhibitors; assay type: biochemical, human; parameters: % Inhibition: concentration or dose not given beside the values; settings: for % Inhibition: inhibition of Z-Pro-Lys-Lys-Glu-AMC cleavage by 293 cell extract
Experimental: Following a 20 minutes incubation at 37° C., fluorescence released due to proteolytic activity was determined using a BMG POLARstar™ Galaxy fluorometer: excitation at 390 nm and emission at 460 nm.

[4] = biological target: T2, Heparanase (Homo sapiens, UniProt Q9Y251, K307R); experiment: Dimerization assay (H53 hetero-dimer formation, di-methyl-methylene-blue); assay type: biochemical; settings: inhibition of H53 hetero-dimer formation by H8-derived peptides; read-out: IC50 H53
T2 sequence (Q9Y251 158-543 K307R limits assumed): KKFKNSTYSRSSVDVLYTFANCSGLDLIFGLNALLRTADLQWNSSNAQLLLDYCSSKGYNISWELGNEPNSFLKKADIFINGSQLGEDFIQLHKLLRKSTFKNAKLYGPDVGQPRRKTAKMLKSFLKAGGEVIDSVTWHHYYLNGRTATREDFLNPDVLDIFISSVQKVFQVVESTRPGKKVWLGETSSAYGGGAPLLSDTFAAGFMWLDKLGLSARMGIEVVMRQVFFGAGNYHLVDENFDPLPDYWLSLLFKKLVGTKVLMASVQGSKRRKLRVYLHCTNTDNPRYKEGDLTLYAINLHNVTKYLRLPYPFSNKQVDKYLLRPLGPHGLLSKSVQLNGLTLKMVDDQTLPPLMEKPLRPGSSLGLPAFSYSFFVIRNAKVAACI
T2 sequence (Q9Y251 36-109 limits assumed): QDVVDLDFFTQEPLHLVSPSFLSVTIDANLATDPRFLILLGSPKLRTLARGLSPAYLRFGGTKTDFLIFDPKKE
Text: Dimerization assay—Activation assay using di-methyl-methylene-blue was effected as described in U.S. Pat. No. 6,190,875.

[5] = Table 7, 5-(5-Phenyl-furan-2-ylmethylene)rhodanine analogs
[6] = Table 11, heparin-binding compounds
[7] = Table 12, known inhibitors of cathepsin B activity

| Molecule | Binding to heparin (5 uM) [2] | IC50 [1, 6] | other results |
| --- | --- | --- | --- |
| O=C(O)c1ccc(-c2ccc(C=C3SC(=S)N(c4ccccc4)C3=O)o2)cc1 [Compound 48] |  |  | IC50 [1, 5]: 0.95 µM |
| O=C(O)c1ccc(-c2ccc(C=C3SC(=S)N(c4cccc([N+](=O)[O-])c4)C3=O)o2)cc1 [Compound 56] |  |  | IC50 [1, 5]: 13 µM |
| Cc1c(N2C(=O)C(=Cc3ccco3)SC2=S)c(=O)n(-c2ccccc2)n1C [Compound 76] |  |  | IC50 ([1]; Table 8, 5-(Heteroaryl-2-ylmethylene)rhodanine analogs): 52 µM |
| C=CCn1c(=O)/c(=C\C=C2/Nc3c(sc(C)c3C)N2CC)s/c1=C\c1sc(-c2ccccc2)c(-c2ccccc2)[n+]1CC [Compound 113] | 73% | 2.61 µM |  |
| C=CCn1c(=O)/c(=C\C=C2\C=CN(CC)c3ccccc32)s/c1=C\c1sc(-c2ccccc2)c(-c2ccccc2)[n+]1CC [Compound 114] | 48% | 7 µM |  |
| CCN1C=C/C(=C/C=c2/s/c(=C\c3sc(-c4ccccc4)c(-c4ccccc4)[n+]3CC)n(CC)c2=O)c2ccccc21 [Compound 115] | 66% | 12 µM |  |
| CN(C)c1ccc(/C=C/C2=[N+](C)c3ccccc3C2(C)C)cc1 [Compound 116] | 71% | 3 µM |  |
| CCCCC(C=O)NC(=O)C(CC(C)C)NC(=O)C(CC(C)C)NC(C)=O (stereo not drawn) [Compound 123, reference compound] (Ac-Leu-Leu-[Nle]-aldehyde; configuration not given here) |  |  | IC50 [1, 7]: 7.4 µM |
| CSCCC(C=O)NC(=O)C(CC(C)C)NC(=O)C(CC(C)C)NC(C)=O (stereo not drawn) [Compound 124, reference compound] (Ac-Leu-Leu-Met-aldehyde; configuration not given here) |  |  | IC50 [1, 7]: 10 µM |
| CCCNC(=O)C1OC1C(=O)NC(C(=O)N1CCCC1C(=O)OC)C(C)CC (stereo not drawn) [Compound 125, reference compound] |  |  | IC50 [1, 7]: 23 µM |
| CC(=O)NC(CC(C)C)C(=O)NC(CC(C)C)C(=O)NC(C=O)CCCNC(=N)N (stereo not drawn) [Compound 126, reference compound] |  |  | IC50 [1, 7]: 26 µM |
| CC(C)CC(NC(=O)C1OC1C(=O)O)C(=O)NCCCCNC(=N)N (stereo not drawn) [Compound 127, reference compound] |  |  | IC50 [1, 7]: 32 µM |
| O=C1C(=Cc2ccc(-c3cccc(Cl)c3Cl)o2)SC(=S)N1c1ccccc1 [Compound 1013-0169] |  |  | IC50 [1, 5]: 129 µM |
| CC(C)C[C@H](NC(=O)[C@H]1O[C@@H]1C(=O)O)C(=O)NCCCCN=C(N)N [Compound E-64] |  |  | % Inhibition [3]: 93% |
| CC(=O)N[C@@H](CC(C)C)C(=O)N[C@@H](CC(C)C)C(=O)N[C@H](C=O)CCCNC(=N)N [Leupeptin] |  |  | % Inhibition [3]: 97% |
| O=C(O)[C@@H](Cc1ccccc1)NS(=O)(=O)c1ccc(-c2ccccc2)cc1 [MMP 2,9 inhibitor] |  |  | % Inhibition [3]: 0% |
| CC(C)CC(NC(=O)C1CCCN1C(=O)OCc1ccccc1)C(=O)NCC(=O)NO (stereo not drawn) [Z-Pro-Leu-Gly hydroxamate] (Cbz-Pro-Leu-Gly-{NHOH}; configuration not given here) |  |  | % Inhibition [3]: 0% |
| N=C(N)c1ccccc1 [benzamidine] |  |  | % Inhibition [3]: 13% |
| CPAYLRFGGTKTDFLIFDPLLE [Pep-7] |  |  | IC50 [4]: 7 µM |
| Z-Glu-His-Tyr-Gln-AMC (Cbz-EHYQ-{AMC}; SMILES Cc1cc(=O)oc2cc(NC(=O)[C@H](CCC(N)=O)NC(=O)[C@H](Cc3ccc(O)cc3)NC(=O)[C@H](Cc3c[nH]cn3)NC(=O)[C@H](CCC(=O)O)NC(=O)OCc3ccccc3)ccc12) [Peptide 2] |  |  | cleavage by 293 cell extract ([3]; different pHs, pH range 4.5-7.5): not cleaved |

The next lines start with results.

| Binding to heparin (5 uM) [2] | IC50 [1, 6] | Molecule | other results |
| --- | --- | --- | --- |
| 66% | 9 µM | CN(C)c1ccc(/C=C/c2sc3ccc4ccccc4c3[n+]2C)cc1 [Compound 117] |  |
| 61% | 6 µM | CC[n+]1c(/C=C/Nc2ccccc2)sc2c3ccccc3sc21 [Compound 118] |  |
| 51% | 1.74 µM | CCN1/C(=C/C=C/c2sc3ccc(OC)cc3[n+]2CC)Sc2ccc3ccccc3c21 [Compound 119] |  |
| 61% | 3.5 µM | CCC(/C=C1\Sc2ccc3ccccc3c2N1CC)=C\c1sc2ccc(-c3ccccc3)cc2[n+]1CC [Compound 120] |  |
| 47% | 5.27 µM | CC[n+]1ccc(/C=C/C=C2\Sc3ccc4ccccc4c3N2C)c2ccccc21 [Compound 121] |  |
| 65% | 16 µM | CN1\C(=C/C=C/C=C/C=C/C2=[N+](C)c3ccccc3C2(C)C)C(C)(C)c2ccccc21 [Compound 122] |  |
